Measured values published in article PMC4977564, “Inhibition of Mycobacterium tuberculosis dihydrodipicolinate synthase by alpha-ketopimelic acid and its other structural analogues” (Scientific Reports, 2016).
pIC50, pKi: −log10 of the molar value.

Columns and labels:
CC(=O)C(=O)O = test: purified protein, by the assay type; conditions: pH 7.4; 37.0 °C
Mtb-rDapA [1] = target: T1, Mtb-rDapA (Mycobacterium tuberculosis, UniProt P9WP25); test: Fluorescence-based thermal shift assay; format: binding; conditions: ligand 0.2 mM to 1 mM; Mtb-rDapA Tm 84.8 °C
T1 sequence (P9WP25 whole entry, looked up): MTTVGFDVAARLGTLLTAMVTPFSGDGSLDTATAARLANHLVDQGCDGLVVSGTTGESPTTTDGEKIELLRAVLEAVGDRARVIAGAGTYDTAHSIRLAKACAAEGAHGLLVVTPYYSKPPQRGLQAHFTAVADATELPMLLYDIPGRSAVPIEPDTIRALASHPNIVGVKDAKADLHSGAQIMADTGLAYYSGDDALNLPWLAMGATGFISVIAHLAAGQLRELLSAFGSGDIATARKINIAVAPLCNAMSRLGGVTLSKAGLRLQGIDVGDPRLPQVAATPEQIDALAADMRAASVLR
Text: The fluorescence based thermal shift assay for screening of identified ligands, which is based on the principle that ligand binding alters thermal stability of protein. This method allows us to monitor the protein denaturation upon heating using fluorescence based dye (Sypro orange, Sigma, USA), which binds to hydrophobic part of proteins during protein denaturation and emits fluorescence at 580 nm[43]. We can monitor the changes in fluorescence and generate a thermal melting curve using real time PCR. The mid-point of the melting curve designated as the melting temperature Tm corresponding to 50% of protein being denatured.
The thermal shift assay was carried out in the LightCycler^R LC480 qPCR machine using 384 well PCR plates (Roche, USA). An assay mixture of 20 μl contained 20 μM Mtb-rDapA, 15 X Sypro Orange (Sigma), 50 mM sodium phosphate buffer pH 7.4 and ligand in the range 0.2 mM to 1 mM. The ligands and Mtb-rDapA were diluted in sodium phosphate buffer. The PCR plates were sealed with optical seal, mixed well and centrifuged after the assay mixture was added. […] The fluorescence intensity was measured by excitation at 465 nm and emission at 580 nm. Curve fitting, melting temperature calculation and report generation on the raw Fluorescence based thermal shift assay (FTS) data were performed using pre-installed analysis software provided with the instrument (Roche, USA)[44].

Mtb-rDapA [2] = target: T1, Mtb-rDapA; test: LC-MS/MRM quantitation of THDP product of the coupled assay; format: biochemical; conditions: MRM, 1 mM KPA (saturating concentration)
Protocol: The activity of Mtb-rDapA and Mtb-rDapB in catalyzing formation of THDP was confirmed by LC/MS analysis. A reaction mixture contained 1 μg of Mtb-rDapA, 30 μg of Mtb-rDapB, 10 mM pyruvate, 1 mM ASA, 0.16 mM NADPH and 50 mM sodium phosphate buffer pH 7.4 run at 37 °C for 5 min using UV-Vis spectrophotometer for THDP formation. Mtb-rDapA and Mtb-rDapB were then inactivated at 55 °C for 5 min to preserve integrity of reaction products and reaction mixture passed through 10 kDa cutoff filter unit (Millipore, USA) to filter the proteins and centrifuged at 6800 × g. The flow-through containing reaction products was used in LC/MS analysis. In order to observe the effect of inhibitor on THDP formation we added α-KPA in the assay mixture. The sample was subjected to analysis on a LC/ESI-MS (Quattro Micro API, Waters) coupled to a UPLC inlet. The flow through was loaded onto an Acquity UPLC BEH shield RP18, […], 2.1 100 mm column comprising a mobile phase of buffer A (water, 0.1% formic acid) and buffer B (acetonitrile, 0.1% formic acid) at a flow rate of 0.2 ml min^−1. […] Quantitative analysis of THDP formation was carried out by assessment of peak area in multiple reactions monitoring (MRM) mode with precursor ion 172.3 of THDP and corresponding daughter ions 125.6 and 107.5 by using above mentioned LC-MS/MS parameters.

Mtb-rDapA [3] = target: T1, Mtb-rDapA; test: Size exclusion chromatography of Mtb-rDapA oligomerization
Protocol: Prior to gel filtration, the pre-packed Superdex 200 10/300 column (GE Healthcare) was pre-equilibrated with 50 mM Tris HCl pH 7.5, 150 mM NaCl and 10% glycerol. 25 μM Mtb-rDapA in 25 mM Tris/150 mM NaCl buffer was loaded in 500 μl volume. Multiple fractions of 1 ml volume were collected and each fraction runs on 12% SDS-PAGE gel electrophoresis. The ligand α-KPA in 1:5, 1:10 and 1:50 molar ratio of Mtb-rDapA was incubated with Mtb-rDapA and subjected to run as above. The chromatograms were collected by measuring absorption at 280 nm as a function of buffer volume at a flow rate of 0.3 ml/min. The column was calibrated by passing Apoferritin eluted at 10.5 ml, β-Amylase eluted at 12.5 ml, Alcohol dehydrogenase eluted at 13 ml, BSA eluted at 14.5 ml, carbonic anhydrase eluted at 16.9 ml, and cytochrome C eluted at 19 ml followed by a standard curve generation.

[4] = target: T2, recombinant Mtb-DapA (Mtb-rDapA) (Mycobacterium tuberculosis, UniProt P9WP25)
T2 sequence (P9WP25 whole entry, looked up): as above

[5] = target: T2, recombinant Mtb-DapA (Mtb-rDapA); test: biochemical

“recombinant Mtb-DapA (Mtb-rDapA) (Mycobacterium tuberculosis H37Rv)” was tested. Which Km (CC(=O)C(=O)O) did it give?
The Km was 148.8 µM.

With `O=C(O)CCCCC(=O)C(=O)O` [compound 1, 2-oxoheptanedioic acid] as the molecule, how does the “Tm increase of Mtb-rDapA upon binding” value (Mtb-rDapA [1]) read?
Its value is 1 °C.

What about the “reduction of THDP product peak (SRM peak area / relative abundance)” value (Mtb-rDapA [2]; listed as KPA) of the same molecule?
The value was “up to 50%”.

And the “reduction of THDP product peak (SRM peak area / relative abundance)” value (Mtb-rDapA [2]; listed as α-KPA)?
Its value is 50%.

And the “effect on Mtb-rDapA oligomerization” value (Mtb-rDapA [3]; ratios of 1:5 and 1:10 of Mtb-rDapA to α-KPA)?
The value was “the oligomerization was not affected”.

And the “effect on Mtb-rDapA oligomerization” value (Mtb-rDapA [3]; α-KPA in 50-fold molar excess, 37 °C, 5 min)?
Its value is “did not obtain any peak corresponding to either the tetramer or the octamer”.

And the “fold increase of IC50, pre-incubation with pyruvate vs pre-incubation with α-KPA” value [4]?
Its value is ~8 fold.

What about the pKi [5] of the same molecule?
The pKi was 4.49.

And the pIC50 ([5]; IC50)?
Its pIC50 is 3.80.

What about the pIC50 ([5]; IC50, pyruvate 500 μM, ASA 400 μM) of the same molecule?
The pIC50 was 4.68.

What about the pIC50 ([5]; IC50 of α-KPA, pyruvate 0.17 mM, ASA 400 μM, 10 min from start) of the same molecule?
Its pIC50 is 4.68.

And the pIC50 ([5]; IC50 of α-KPA, pyruvate 0.17 mM, ASA 400 μM, 20 min from start)?
Its pIC50 is 4.68.

And the pIC50 ([5]; IC50 of α-KPA, pyruvate 0.17 mM, ASA 400 μM, 30 min from start)?
The pIC50 was 4.68.

What about the pIC50 ([5]; IC50 of α-KPA, pyruvate 0.17 mM, ASA 400 μM, 40 min from start) of the same molecule?
The pIC50 was 4.51.

And the pIC50 ([5]; IC50 of α-KPA, pyruvate 0.17 mM, ASA 400 μM, 50 min from start)?
Its pIC50 is 4.39.

And the pIC50 ([5]; IC50 of α-KPA, pyruvate 0.17 mM, ASA 400 μM, 60 min from start)?
The pIC50 was 4.29.

And the pIC50 ([5]; IC50 of α-KPA, pyruvate 0.3 mM, ASA 400 μM, 10 min from start)?
Its pIC50 is 4.68.

What about the pIC50 ([5]; IC50 of α-KPA, pyruvate 0.3 mM, ASA 400 μM, 20 min from start) of the same molecule?
Its pIC50 is 4.68.

And the pIC50 ([5]; IC50 of α-KPA, pyruvate 0.3 mM, ASA 400 μM, 30 min from start)?
Its pIC50 is 4.68.

What about the pIC50 ([5]; IC50 of α-KPA, pyruvate 0.3 mM, ASA 400 μM, 40 min from start) of the same molecule?
The pIC50 was 4.51.

What about the pIC50 ([5]; IC50 of α-KPA, pyruvate 0.3 mM, ASA 400 μM, 50 min from start) of the same molecule?
The pIC50 was 4.39.

And the pIC50 ([5]; IC50 of α-KPA, pyruvate 0.3 mM, ASA 400 μM, 60 min from start)?
The pIC50 was 4.29.

What about the pIC50 ([5]; IC50 of α-KPA, pyruvate 1 mM, ASA 400 μM, 10 min from start) of the same molecule?
Its pIC50 is 4.68.

And the pIC50 ([5]; IC50 of α-KPA, pyruvate 1 mM, ASA 400 μM, 20 min from start)?
Its pIC50 is 4.68.

And the pIC50 ([5]; IC50 of α-KPA, pyruvate 1 mM, ASA 400 μM, 30 min from start)?
The pIC50 was 4.68.

And the pIC50 ([5]; IC50 of α-KPA, pyruvate 1 mM, ASA 400 μM, 40 min from start)?
Its pIC50 is 4.51.

And the pIC50 ([5]; IC50 of α-KPA, pyruvate 1 mM, ASA 400 μM, 50 min from start)?
Its pIC50 is 4.39.

And the pIC50 ([5]; IC50 of α-KPA, pyruvate 1 mM, ASA 400 μM, 60 min from start)?
Its pIC50 is 4.29.

What about the pIC50 ([5]; IC50 of α-KPA, pyruvate 2 mM, ASA 400 μM, 10 min from start) of the same molecule?
The pIC50 was 4.21.

And the pIC50 ([5]; IC50 of α-KPA, pyruvate 2 mM, ASA 400 μM, 20 min from start)?
The pIC50 was 4.21.

What about the pIC50 ([5]; IC50 of α-KPA, pyruvate 2 mM, ASA 400 μM, 30 min from start) of the same molecule?
Its pIC50 is 4.15.

What about the pIC50 ([5]; IC50 of α-KPA, pyruvate 2 mM, ASA 400 μM, 40 min from start) of the same molecule?
Its pIC50 is 4.09.

And the pIC50 ([5]; IC50 of α-KPA, pyruvate 2 mM, ASA 400 μM, 50 min from start)?
Its pIC50 is 4.04.

What about the pIC50 ([5]; IC50 of α-KPA, pyruvate 2 mM, ASA 400 μM, 60 min from start) of the same molecule?
The pIC50 was 4.00.

And the Emax ([5]; read-out: Maximal Inhibition (%))?
The Emax was 88%.

What about the inhibition at 400 µM ([5]; read-out: maximal inhibition) of the same molecule?
The inhibition at 400 µM was 77%.
